Source: the kinase profiling compilation of Christmann-Franck et al. (2016)

Assays:
Assay in all cases: SelectScreen, TR FRET
AKT2 (human) = AKT2 (human) (UniProt P31751)
JAK2 JH1 JH2 (human) = JAK2 JH1 JH2 (human) (UniProt O60674)
PRKG2 (human) = PRKG2 (human) (UniProt Q13237)
TAOK2 (human) = TAOK2 (human) (UniProt Q9UL54)
MAPKAPK5 (human) = MAPKAPK5 (human) (UniProt Q8IW41)
ADRBK1 (human) = ADRBK1 (human) (UniProt P25098)
ERBB2 (human) = ERBB2 (human) (UniProt P04626)
CSNK2A1 (human) = CSNK2A1 (human) (UniProt P68400)
BTK (human) = BTK (human) (UniProt Q06187)
BTK (human), sequence (Q06187 whole entry, looked up): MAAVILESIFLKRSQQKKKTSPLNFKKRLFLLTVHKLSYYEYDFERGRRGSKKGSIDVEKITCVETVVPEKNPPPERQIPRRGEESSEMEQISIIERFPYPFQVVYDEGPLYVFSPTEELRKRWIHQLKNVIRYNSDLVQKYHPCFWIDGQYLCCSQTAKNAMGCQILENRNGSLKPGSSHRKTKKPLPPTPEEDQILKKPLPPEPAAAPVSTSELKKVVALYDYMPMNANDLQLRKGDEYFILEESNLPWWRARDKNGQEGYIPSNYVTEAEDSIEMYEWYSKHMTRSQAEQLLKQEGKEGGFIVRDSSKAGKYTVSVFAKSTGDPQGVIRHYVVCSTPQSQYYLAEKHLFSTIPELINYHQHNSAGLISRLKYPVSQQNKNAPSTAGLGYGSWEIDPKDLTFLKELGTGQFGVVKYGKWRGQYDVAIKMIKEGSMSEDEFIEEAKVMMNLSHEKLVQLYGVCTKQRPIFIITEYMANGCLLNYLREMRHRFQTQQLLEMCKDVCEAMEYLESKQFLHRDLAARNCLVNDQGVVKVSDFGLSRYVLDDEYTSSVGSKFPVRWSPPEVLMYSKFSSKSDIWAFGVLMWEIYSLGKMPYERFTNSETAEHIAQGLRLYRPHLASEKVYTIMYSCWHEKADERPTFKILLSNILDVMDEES

AKT3 (human) = AKT3 (human) (UniProt Q9Y243)
MINK1 (human) = MINK1 (human) (UniProt Q8N4C8)
LRRK2 (human) = LRRK2 (human) (UniProt Q5S007)
MAPKAPK2 (human) = MAPKAPK2 (human) (UniProt P49137)
MAPK14 (human) = MAPK14 (human) (UniProt Q16539)
MAPK14 (human), sequence (Q16539 whole entry, looked up): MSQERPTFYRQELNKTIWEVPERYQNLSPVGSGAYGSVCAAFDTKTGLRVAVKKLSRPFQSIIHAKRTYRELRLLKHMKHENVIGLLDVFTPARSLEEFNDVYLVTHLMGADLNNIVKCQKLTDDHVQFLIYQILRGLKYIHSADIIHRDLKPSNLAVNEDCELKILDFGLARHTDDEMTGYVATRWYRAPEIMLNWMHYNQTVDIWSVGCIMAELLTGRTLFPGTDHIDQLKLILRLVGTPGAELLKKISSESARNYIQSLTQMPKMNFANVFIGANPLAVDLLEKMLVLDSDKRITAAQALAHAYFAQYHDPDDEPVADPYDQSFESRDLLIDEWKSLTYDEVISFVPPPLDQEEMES

IRAK1 (human) = IRAK1 (human) (UniProt P51617)
RPS6KA3 KD1 KD2 (human) = RPS6KA3 KD1 KD2 (human) (UniProt P51812)
DAPK1 (human) = DAPK1 (human) (UniProt P53355)
MAP2K6 (human) = MAP2K6 (human) (UniProt P52564)
MARK2 (human) = MARK2 (human) (UniProt Q7KZI7)
MARK2 (human), sequence (Q7KZI7 whole entry, looked up): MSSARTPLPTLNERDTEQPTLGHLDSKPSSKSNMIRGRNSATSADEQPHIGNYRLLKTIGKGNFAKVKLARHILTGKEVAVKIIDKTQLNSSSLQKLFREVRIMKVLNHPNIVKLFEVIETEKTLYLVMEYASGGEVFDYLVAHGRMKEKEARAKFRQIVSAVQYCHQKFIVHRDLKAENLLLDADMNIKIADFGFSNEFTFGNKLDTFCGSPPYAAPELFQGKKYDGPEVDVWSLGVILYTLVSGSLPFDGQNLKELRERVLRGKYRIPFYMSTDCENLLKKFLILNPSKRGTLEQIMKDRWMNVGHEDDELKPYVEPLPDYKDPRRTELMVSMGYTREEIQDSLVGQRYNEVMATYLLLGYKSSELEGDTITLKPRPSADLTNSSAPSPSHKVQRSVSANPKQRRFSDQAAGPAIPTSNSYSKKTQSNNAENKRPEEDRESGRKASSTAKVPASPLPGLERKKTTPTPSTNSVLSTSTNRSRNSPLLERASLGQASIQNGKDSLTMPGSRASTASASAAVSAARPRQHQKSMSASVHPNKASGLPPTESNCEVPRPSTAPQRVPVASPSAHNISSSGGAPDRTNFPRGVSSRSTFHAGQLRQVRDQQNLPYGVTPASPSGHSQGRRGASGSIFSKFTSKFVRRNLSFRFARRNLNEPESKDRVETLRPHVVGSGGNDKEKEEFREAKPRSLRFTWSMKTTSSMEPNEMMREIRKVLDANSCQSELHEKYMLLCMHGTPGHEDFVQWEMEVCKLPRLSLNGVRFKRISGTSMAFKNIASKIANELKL

NEK2 (human) = NEK2 (human) (UniProt P51955)
EPHB2 (human) = EPHB2 (human) (UniProt P29323)
LCK (human) = LCK (human) (UniProt P06239)
LCK (human), sequence (P06239 whole entry, looked up): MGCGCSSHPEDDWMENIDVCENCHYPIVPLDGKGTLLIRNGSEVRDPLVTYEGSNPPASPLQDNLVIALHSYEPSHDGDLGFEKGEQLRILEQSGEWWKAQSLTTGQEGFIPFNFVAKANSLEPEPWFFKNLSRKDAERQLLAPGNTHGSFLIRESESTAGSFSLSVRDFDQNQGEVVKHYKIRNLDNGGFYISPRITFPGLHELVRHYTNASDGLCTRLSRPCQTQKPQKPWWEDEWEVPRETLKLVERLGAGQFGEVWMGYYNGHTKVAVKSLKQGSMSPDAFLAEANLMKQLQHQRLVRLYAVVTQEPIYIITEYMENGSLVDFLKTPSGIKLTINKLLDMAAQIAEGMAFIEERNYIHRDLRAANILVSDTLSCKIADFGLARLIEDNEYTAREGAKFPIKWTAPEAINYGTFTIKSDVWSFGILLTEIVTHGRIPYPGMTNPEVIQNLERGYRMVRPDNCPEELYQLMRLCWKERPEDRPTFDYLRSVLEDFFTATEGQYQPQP

FLT3 (human) = FLT3 (human) (UniProt P36888)
FLT3 (human), sequence (P36888 whole entry, looked up): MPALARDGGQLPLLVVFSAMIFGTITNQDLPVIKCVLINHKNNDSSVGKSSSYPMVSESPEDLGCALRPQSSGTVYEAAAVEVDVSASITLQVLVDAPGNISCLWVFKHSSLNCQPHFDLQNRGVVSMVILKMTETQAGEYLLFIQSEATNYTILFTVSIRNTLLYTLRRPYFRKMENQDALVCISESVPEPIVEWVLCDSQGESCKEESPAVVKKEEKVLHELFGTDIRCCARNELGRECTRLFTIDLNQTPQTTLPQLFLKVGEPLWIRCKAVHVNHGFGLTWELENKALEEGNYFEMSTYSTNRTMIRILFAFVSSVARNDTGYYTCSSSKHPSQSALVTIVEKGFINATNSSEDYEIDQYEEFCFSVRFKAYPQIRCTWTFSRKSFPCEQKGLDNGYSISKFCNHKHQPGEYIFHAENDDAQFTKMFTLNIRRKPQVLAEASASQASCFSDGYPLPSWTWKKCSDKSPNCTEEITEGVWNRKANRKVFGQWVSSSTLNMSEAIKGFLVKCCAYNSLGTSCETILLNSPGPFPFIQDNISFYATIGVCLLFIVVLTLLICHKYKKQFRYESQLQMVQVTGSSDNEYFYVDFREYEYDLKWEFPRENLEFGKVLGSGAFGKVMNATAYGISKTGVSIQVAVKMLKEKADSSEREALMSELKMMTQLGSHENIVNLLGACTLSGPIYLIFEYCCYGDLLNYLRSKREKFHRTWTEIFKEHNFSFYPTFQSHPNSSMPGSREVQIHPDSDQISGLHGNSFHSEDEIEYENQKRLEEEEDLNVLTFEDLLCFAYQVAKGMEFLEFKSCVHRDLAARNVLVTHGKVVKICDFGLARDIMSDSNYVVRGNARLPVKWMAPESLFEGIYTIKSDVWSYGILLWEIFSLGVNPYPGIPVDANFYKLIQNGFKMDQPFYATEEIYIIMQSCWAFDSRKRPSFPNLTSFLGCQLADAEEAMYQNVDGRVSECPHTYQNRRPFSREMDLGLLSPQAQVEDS

CSNK1A1 (human) = CSNK1A1 (human) (UniProt P48729)
CSNK1A1 (human), sequence (P48729 whole entry, looked up): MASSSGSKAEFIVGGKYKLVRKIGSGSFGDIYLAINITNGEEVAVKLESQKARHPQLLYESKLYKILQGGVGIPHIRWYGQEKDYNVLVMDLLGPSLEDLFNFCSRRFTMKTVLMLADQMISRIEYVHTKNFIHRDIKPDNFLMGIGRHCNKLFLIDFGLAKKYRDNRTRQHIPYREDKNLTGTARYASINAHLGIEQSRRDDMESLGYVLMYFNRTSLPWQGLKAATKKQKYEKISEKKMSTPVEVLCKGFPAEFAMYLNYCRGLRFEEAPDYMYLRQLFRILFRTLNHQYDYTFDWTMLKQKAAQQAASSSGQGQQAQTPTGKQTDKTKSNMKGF

BRAF (human) = BRAF (human) (UniProt P15056)
[1] = tested on: RAF1 (human), P04049 [Y340D/Y341D]
RPS6KB1 (human) = RPS6KB1 (human) (UniProt P23443)
RPS6KB1 (human), sequence (P23443 whole entry, looked up): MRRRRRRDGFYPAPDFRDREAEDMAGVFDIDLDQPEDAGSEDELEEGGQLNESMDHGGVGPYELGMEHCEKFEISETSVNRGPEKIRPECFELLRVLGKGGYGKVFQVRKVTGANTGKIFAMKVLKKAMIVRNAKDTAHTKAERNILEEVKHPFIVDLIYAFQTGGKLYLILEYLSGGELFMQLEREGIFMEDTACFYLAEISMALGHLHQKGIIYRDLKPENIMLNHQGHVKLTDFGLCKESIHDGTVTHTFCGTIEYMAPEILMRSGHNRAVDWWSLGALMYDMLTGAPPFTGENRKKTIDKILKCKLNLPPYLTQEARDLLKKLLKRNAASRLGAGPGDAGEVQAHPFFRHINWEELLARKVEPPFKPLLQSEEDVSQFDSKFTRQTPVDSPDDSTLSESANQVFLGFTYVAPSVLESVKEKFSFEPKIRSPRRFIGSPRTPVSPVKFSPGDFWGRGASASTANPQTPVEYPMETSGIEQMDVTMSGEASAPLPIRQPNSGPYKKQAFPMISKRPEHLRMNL

[2] = target: PRKAA2 PRKAB1 PRKAG1 (human) (UniProt Q9Y478+P54646+P54619); conditions: compound 0.1 µM

PRKG2 (human), sequence (Q13237 whole entry, looked up): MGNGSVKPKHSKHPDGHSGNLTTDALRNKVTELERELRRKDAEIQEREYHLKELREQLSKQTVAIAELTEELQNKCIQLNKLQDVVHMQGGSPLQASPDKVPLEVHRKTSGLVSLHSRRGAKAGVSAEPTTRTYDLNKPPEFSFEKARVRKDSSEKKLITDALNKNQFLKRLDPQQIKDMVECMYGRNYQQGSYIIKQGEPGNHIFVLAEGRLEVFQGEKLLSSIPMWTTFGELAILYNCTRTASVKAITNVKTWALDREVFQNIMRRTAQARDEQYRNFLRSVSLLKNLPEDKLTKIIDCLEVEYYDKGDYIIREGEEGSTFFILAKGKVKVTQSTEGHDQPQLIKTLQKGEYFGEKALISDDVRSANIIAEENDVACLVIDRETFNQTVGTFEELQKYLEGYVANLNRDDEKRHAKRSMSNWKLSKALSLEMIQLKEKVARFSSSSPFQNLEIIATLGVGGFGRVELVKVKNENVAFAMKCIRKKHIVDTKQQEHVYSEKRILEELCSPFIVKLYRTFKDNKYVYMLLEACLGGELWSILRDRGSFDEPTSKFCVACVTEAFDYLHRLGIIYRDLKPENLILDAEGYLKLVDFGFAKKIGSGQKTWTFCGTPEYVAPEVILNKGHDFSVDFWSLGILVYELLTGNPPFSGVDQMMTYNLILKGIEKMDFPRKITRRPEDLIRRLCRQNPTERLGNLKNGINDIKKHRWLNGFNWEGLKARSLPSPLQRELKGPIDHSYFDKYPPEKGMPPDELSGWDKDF

**Q.** Which inhibition (AKT2 (human); compound 0.1 µM) does the source give for `Cn1cc(-c2cnc3ccc4ccc(CC(=O)NCc5ccccn5)cc4c(=O)c3c2)cn1` here?
**A.** 9.8%

**Q.** What about the inhibition (AKT2 (human); compound 1.0 µM) of the same compound?
**A.** 11.3%

**Q.** What about the inhibition (AKT2 (human); compound 10.0 µM) of the same compound?
**A.** 15.6%

**Q.** What about the inhibition (JAK2 JH1 JH2 (human); compound 0.1 µM) of the same compound?
**A.** 4.4%

**Q.** And the inhibition (JAK2 JH1 JH2 (human); compound 1.0 µM)?
**A.** 12.5%

**Q.** And the inhibition (JAK2 JH1 JH2 (human); compound 10.0 µM)?
**A.** 41%

**Q.** What about the inhibition (PRKG2 (human); compound 0.1 µM) of the same compound?
**A.** 12.8%

**Q.** And the inhibition (PRKG2 (human); compound 1.0 µM)?
**A.** 14.8%

**Q.** And the inhibition (PRKG2 (human); compound 10.0 µM)?
**A.** 53.5%

**Q.** And the inhibition (TAOK2 (human); compound 0.1 µM)?
**A.** 10.9%

**Q.** And the inhibition (TAOK2 (human); compound 1.0 µM)?
**A.** 7%

**Q.** What about the inhibition (TAOK2 (human); compound 10.0 µM) of the same compound?
**A.** -17.5%

**Q.** And the inhibition (MAPKAPK5 (human); compound 0.1 µM)?
**A.** 5.2%

**Q.** What about the inhibition (MAPKAPK5 (human); compound 1.0 µM) of the same compound?
**A.** 6.7%

**Q.** And the inhibition (MAPKAPK5 (human); compound 10.0 µM)?
**A.** 7.9%

**Q.** And the inhibition (ADRBK1 (human); compound 0.1 µM)?
**A.** 9.4%

**Q.** What about the inhibition (ADRBK1 (human); compound 1.0 µM) of the same compound?
**A.** 8.9%

**Q.** What about the inhibition (ADRBK1 (human); compound 10.0 µM) of the same compound?
**A.** 10.4%

**Q.** And the inhibition (ERBB2 (human); compound 0.1 µM)?
**A.** -4.3%

**Q.** And the inhibition (ERBB2 (human); compound 1.0 µM)?
**A.** 2.2%

**Q.** What about the inhibition (ERBB2 (human); compound 10.0 µM) of the same compound?
**A.** -10.5%

**Q.** And the inhibition (CSNK2A1 (human); compound 0.1 µM)?
**A.** 8.2%

**Q.** And the inhibition (CSNK2A1 (human); compound 1.0 µM)?
**A.** 9.2%

**Q.** And the inhibition (CSNK2A1 (human); compound 10.0 µM)?
**A.** 10.2%

**Q.** What about the inhibition (BTK (human); compound 0.1 µM) of the same compound?
**A.** 10.9%

**Q.** And the inhibition (BTK (human); compound 1.0 µM)?
**A.** 13.4%

**Q.** And the inhibition (BTK (human); compound 10.0 µM)?
**A.** 15.4%

**Q.** What about the inhibition (AKT3 (human); compound 0.1 µM) of the same compound?
**A.** 11.3%

**Q.** What about the inhibition (AKT3 (human); compound 1.0 µM) of the same compound?
**A.** 10.6%

**Q.** And the inhibition (AKT3 (human); compound 10.0 µM)?
**A.** 14.6%

**Q.** What about the inhibition (MINK1 (human); compound 0.1 µM) of the same compound?
**A.** 19.9%

**Q.** What about the inhibition (MINK1 (human); compound 1.0 µM) of the same compound?
**A.** 29.2%

**Q.** What about the inhibition (MINK1 (human); compound 10.0 µM) of the same compound?
**A.** 71.1%

**Q.** And the inhibition (LRRK2 (human); compound 0.1 µM)?
**A.** 19.9%

**Q.** What about the inhibition (LRRK2 (human); compound 1.0 µM) of the same compound?
**A.** 25.4%

**Q.** What about the inhibition (LRRK2 (human); compound 10.0 µM) of the same compound?
**A.** 54.3%

**Q.** What about the inhibition (MAPKAPK2 (human); compound 0.1 µM) of the same compound?
**A.** 9.5%

**Q.** What about the inhibition (MAPKAPK2 (human); compound 1.0 µM) of the same compound?
**A.** 7.8%

**Q.** What about the inhibition (MAPKAPK2 (human); compound 10.0 µM) of the same compound?
**A.** 19.8%

**Q.** And the inhibition (MAPK14 (human); compound 0.1 µM)?
**A.** 17.9%

**Q.** What about the inhibition (MAPK14 (human); compound 1.0 µM) of the same compound?
**A.** 20.8%

**Q.** And the inhibition (MAPK14 (human); compound 10.0 µM)?
**A.** 20.1%

**Q.** And the inhibition (IRAK1 (human); compound 0.1 µM)?
**A.** 7.1%

**Q.** And the inhibition (IRAK1 (human); compound 1.0 µM)?
**A.** 27.1%

**Q.** What about the inhibition (IRAK1 (human); compound 10.0 µM) of the same compound?
**A.** 66.3%

**Q.** And the inhibition (RPS6KA3 KD1 KD2 (human); compound 0.1 µM)?
**A.** 6.4%

**Q.** And the inhibition (RPS6KA3 KD1 KD2 (human); compound 1.0 µM)?
**A.** 7.8%

**Q.** And the inhibition (RPS6KA3 KD1 KD2 (human); compound 10.0 µM)?
**A.** 18.9%

**Q.** And the inhibition (DAPK1 (human); compound 0.1 µM)?
**A.** 21.9%

**Q.** What about the inhibition (DAPK1 (human); compound 1.0 µM) of the same compound?
**A.** 2.1%

**Q.** What about the inhibition (DAPK1 (human); compound 10.0 µM) of the same compound?
**A.** 14.5%

**Q.** And the inhibition (MAP2K6 (human); compound 0.1 µM)?
**A.** 9.7%

**Q.** And the inhibition (MAP2K6 (human); compound 1.0 µM)?
**A.** 9.1%

**Q.** What about the inhibition (MAP2K6 (human); compound 10.0 µM) of the same compound?
**A.** 7.4%

**Q.** And the inhibition (MARK2 (human); compound 0.1 µM)?
**A.** 12.1%

**Q.** And the inhibition (MARK2 (human); compound 1.0 µM)?
**A.** 14.2%

**Q.** And the inhibition (MARK2 (human); compound 10.0 µM)?
**A.** 19.7%

**Q.** And the inhibition (NEK2 (human); compound 0.1 µM)?
**A.** 15.7%

**Q.** And the inhibition (NEK2 (human); compound 1.0 µM)?
**A.** 9.8%

**Q.** What about the inhibition (NEK2 (human); compound 10.0 µM) of the same compound?
**A.** -56.3%

**Q.** What about the inhibition (EPHB2 (human); compound 0.1 µM) of the same compound?
**A.** 8.6%

**Q.** What about the inhibition (EPHB2 (human); compound 1.0 µM) of the same compound?
**A.** 8%

**Q.** What about the inhibition (EPHB2 (human); compound 10.0 µM) of the same compound?
**A.** 3.5%

**Q.** And the inhibition (LCK (human); compound 0.1 µM)?
**A.** 27.2%

**Q.** And the inhibition (LCK (human); compound 1.0 µM)?
**A.** 37.9%

**Q.** And the inhibition (LCK (human); compound 10.0 µM)?
**A.** 77.3%

**Q.** And the inhibition (FLT3 (human); compound 0.1 µM)?
**A.** 24.6%

**Q.** And the inhibition (FLT3 (human); compound 1.0 µM)?
**A.** 59.7%

**Q.** And the inhibition (FLT3 (human); compound 10.0 µM)?
**A.** 80%

**Q.** What about the inhibition (CSNK1A1 (human); compound 0.1 µM) of the same compound?
**A.** 5.1%

**Q.** What about the inhibition (CSNK1A1 (human); compound 1.0 µM) of the same compound?
**A.** 4.8%

**Q.** What about the inhibition (CSNK1A1 (human); compound 10.0 µM) of the same compound?
**A.** 13.3%

**Q.** And the inhibition (BRAF (human); compound 0.1 µM)?
**A.** 12.3%

**Q.** What about the inhibition (BRAF (human); compound 1.0 µM) of the same compound?
**A.** 13.5%

**Q.** And the inhibition (BRAF (human); compound 10.0 µM)?
**A.** -0.3%

**Q.** What about the inhibition ([1]; compound 0.1 µM) of the same compound?
**A.** 26.2%

**Q.** What about the inhibition ([1]; compound 1.0 µM) of the same compound?
**A.** 25.4%

**Q.** And the inhibition ([1]; compound 10.0 µM)?
**A.** 7%

**Q.** What about the inhibition (RPS6KB1 (human); compound 0.1 µM) of the same compound?
**A.** 5.5%

**Q.** And the inhibition (RPS6KB1 (human); compound 1.0 µM)?
**A.** 19.7%

**Q.** And the inhibition (RPS6KB1 (human); compound 10.0 µM)?
**A.** 25.1%

**Q.** And the inhibition [2]?
**A.** 11.6%
